According to ChEMBL document CHEMBL1156419, “Inhibition of metalloprotease botulinum serotype A from a pseudo-peptide binding mode to a small molecule that is active in primary neurons” (J Biol Chem, 2007):
Where a SMILES comes first, the peptide text is derived from it. The star is where a group is joined. Propanoyl(2S-SH,3-Ph) = O=C([C@@H](S)Cc1ccccc1)*; X1 = O=C([C@H](S)Cc1ccccc1)*

System: not listed separately
Test: Cytotoxicity in embryonic chicken spinal neurons at 1 to 5 uM after 3.5 hrs
Set-up: species or system Gallus gallus

| Compound | Activity |
| --- | --- |
| N=C(N)N/N=C/c1ccc(-c2cc3ccc(/C=N/NC(=N)N)cc3s2)cc1 | Toxic |
| N=C(N)c1ccc2oc(/C=C/C=C/C=C/c3cc4cc(C(=N)N)ccc4o3)cc2c1 | Toxic |

Biological target: Botulinum neurotoxin type A (Clostridium botulinum (strain Hall / ATCC 3502 / NCTC 13319 / Type A), UniProt P0DPI1)
Sequence (P0DPI1 2-448 limits assumed): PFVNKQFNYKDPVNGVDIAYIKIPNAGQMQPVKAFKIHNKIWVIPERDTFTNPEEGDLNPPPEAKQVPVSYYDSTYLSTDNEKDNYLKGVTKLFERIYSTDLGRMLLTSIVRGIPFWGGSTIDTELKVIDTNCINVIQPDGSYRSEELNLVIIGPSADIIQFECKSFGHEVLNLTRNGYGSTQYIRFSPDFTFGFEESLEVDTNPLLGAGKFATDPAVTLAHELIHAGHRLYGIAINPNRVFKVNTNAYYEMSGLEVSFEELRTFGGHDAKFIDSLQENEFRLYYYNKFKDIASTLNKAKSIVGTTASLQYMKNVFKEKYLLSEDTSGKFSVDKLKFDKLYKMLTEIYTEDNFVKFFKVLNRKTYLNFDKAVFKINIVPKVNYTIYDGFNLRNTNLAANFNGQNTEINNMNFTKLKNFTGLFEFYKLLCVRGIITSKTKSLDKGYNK
Test: Inhibition of BoNT/A light chain metalloprotease activity

| Compound | Ki |
| --- | --- |
| CSCC[C@H](NC(=O)[C@H](CCCCN)NC(=O)[C@@H](NC(=O)[C@H](C)NC(=O)[C@H](CCCNC(=N)N)NC(=O)[C@@H](S)Cc1ccccc1)[C@@H](C)O)C(=O)N[C@@H](CC(C)C)C(=O)NCC(=O)N[C@@H](CO)C(=O)NCC(=O)O ({Propanoyl(2S-SH,3-Ph)}-RATKMLGSG-OH) | 0.3 µM |
| CSCC[C@H](NC(=O)[C@H](CCCCN)NC(=O)[C@H](C)NC(=O)[C@H](C)NC(=O)[C@H](CCCNC(=N)N)NC(=O)[C@@H](S)Cc1ccccc1)C(=O)N[C@@H](CC(C)C)C(=O)O ({Propanoyl(2S-SH,3-Ph)}-RAAKML-OH) | 0.7 µM |
| CSCC[C@H](NC(=O)[C@H](CCCCN)NC(=O)[C@@H](NC(=O)[C@H](C)NC(=O)[C@H](CCCN=C(N)N)NC(=O)[C@@H](S)Cc1ccccc1)[C@@H](C)O)C(=O)O ({Propanoyl(2S-SH,3-Ph)}-RATKM-OH) | 0.4 µM |
| N=C(N)N/N=C/c1ccc(-c2cc3ccc(/C=N/NC(=N)N)cc3s2)cc1 | 3 µM |
| CSCC[C@H](NC(=O)[C@H](CCCCN)NC(=O)[C@@H](NC(=O)[C@@H](NC(=O)[C@H](CCCN=C(N)N)NC(=O)[C@@H](S)Cc1ccccc1)C(C)C)[C@@H](C)O)C(=O)N[C@@H](CC(C)C)C(=O)O ({Propanoyl(2S-SH,3-Ph)}-RVTKML-OH) | 2 µM |
| CSCC[C@H](NC(=O)[C@H](C)NC(=O)[C@@H](NC(=O)[C@H](C)NC(=O)[C@H](CCCN=C(N)N)NC(=O)[C@@H](S)Cc1ccccc1)[C@@H](C)O)C(=O)N[C@@H](CC(C)C)C(=O)O ({Propanoyl(2S-SH,3-Ph)}-RATAML-OH) | 3 µM |
| CSCC[C@H](NC(=O)[C@H](CCCCN)NC(=O)[C@@H](NC(=O)[C@H](C)NC(=O)[C@H](CCCNC(=N)N)NC(=O)[C@H](S)Cc1ccccc1)[C@@H](C)O)C(=O)N[C@@H](CC(C)C)C(=O)O (X1-RATKML-OH) | 8 µM |
| CSCC[C@H](NC(=O)[C@H](CCCCN)NC(=O)[C@@H](NC(=O)[C@H](C)NC(=O)[C@H](CCCCN)NC(=O)[C@@H](S)Cc1ccccc1)[C@@H](C)O)C(=O)N[C@@H](CC(C)C)C(=O)O ({Propanoyl(2S-SH,3-Ph)}-KATKML-OH) | > 300 µM |
| CSCC[C@H](NC(=O)[C@H](CCCCN)NC(=O)[C@@H](NC(=O)[C@H](C)NC(=O)[C@H](CCCNC(=N)N)NC(=O)[C@@H](S)Cc1ccccc1)[C@@H](C)O)C(=O)N[C@@H](CC(C)C)C(=O)O ({Propanoyl(2S-SH,3-Ph)}-RATKML-OH) | 0.3 µM |
| C[C@H](NC(=O)[C@H](CCCNC(=N)N)NC(=O)[C@@H](S)Cc1ccccc1)C(=O)N[C@H](C(=O)N[C@@H](CCCCN)C(=O)O)[C@@H](C)O ({Propanoyl(2S-SH,3-Ph)}-RATK-OH) | 4 µM |
| N=C(N)c1ccc2oc(/C=C/C=C/C=C/c3cc4cc(C(=N)N)ccc4o3)cc2c1 | 6 µM |
| CSCC[C@H](NC(=O)[C@H](CCCCN)NC(=O)[C@@H](NC(=O)[C@H](C)NC(=O)[C@H](CCCNC(=N)N)NC(=O)[C@@H](N)CS)[C@@H](C)O)C(=O)N[C@@H](CC(C)C)C(=O)O (H-CRATKML-OH) | 2 µM |
| C[C@H](NC(=O)[C@H](CCCNC(=N)N)NC(=O)[C@@H](S)Cc1ccccc1)C(=O)N[C@H](C(=O)O)[C@@H](C)O | 30 µM |
| CC(C)C[C@H](NC(=O)[C@H](C)NC(=O)[C@H](CCCCN)NC(=O)[C@@H](NC(=O)[C@H](C)NC(=O)[C@H](CCCNC(=N)N)NC(=O)[C@@H](S)Cc1ccccc1)[C@@H](C)O)C(=O)O ({Propanoyl(2S-SH,3-Ph)}-RATKAL-OH) | 0.7 µM |
| C(=C\c1cc2ccc(C3=NCCN3)cc2[nH]1)/c1ccc2cc(C3=NCCN3)[nH]c2c1 | 10 µM |
| NC(N)=NCCC[C@H](NC(=O)[C@@H](S)Cc1ccccc1)C(=O)O | 60 µM |
| C[C@H](NC(=O)[C@H](CCCNC(=N)N)NC(=O)[C@@H](S)Cc1ccccc1)C(=O)O | 60 µM |
